Consider 85 compounds from ChEMBL document CHEMBL1157539, “Thousands of chemical starting points for antimalarial lead identification” (Nature, 2010).

The subject of the test is Plasmodium falciparum. Nature of the test: GSK_TCMDC: Inhibition of Plasmodium falciparum 3D7 in whole erythrocytes, using parasite LDH activity as an index of growth. Format: functional, organism-based. The conditions noted are these: Plasmodium falciparum, 3D7.
The compound `CCN(CC)CCN(Cc1ccc(-c2ccc(C(F)(F)F)cc2)cc1)C(=O)Cn1c(CCc2cccc(F)c2F)nc(=O)c2ccccc21` showed an XC50 of 671 nM.
The value for `CCN1CCC(N(Cc2ccc(-c3ccc(C(F)(F)F)cc3)cc2)C(=O)Cn2c(SCc3cccc(F)c3F)cc(=O)c3ccccc32)C1` (stereo not given) was 882 nM; that for `COc1cc(Cc2cnc(N)nc2N)cc(OCCCCCCC(=O)O)c1OC` was 937 nM.
The value for `COc1cccc(CC(=O)N2CCC(n3c(C)nc4ccc(F)cc43)CC2)c1` was 906 nM; that for `COc1ccc(C(=O)N2CCc3cc4nccc(N5CCN6CCC[C@H]6C5)c4cc32)cc1` was 948 nM; that for `CCC(O)(C#Cc1c(C)nc(N)nc1N)CC` was 639 nM.
In turn, `COc1cc(CCOc2c(C)nc(N)nc2N)cc(OC)c1OC` gave an XC50 of 23.8 nM.
The value for `Cc1cccc(Oc2cccc3[nH]nc(N)c23)c1` was 1040 nM; that for `CCN1CCN(c2cc(C)c3cc(NC(=O)c4cccc(OC)c4)ccc3n2)CC1` was 799 nM; that for `Cc1ccc(O)cc1Nc1ccnc2cc(-c3nccs3)ccc12` was 879 nM.
The value for `CCc1ccc(CC(C)NCC(O)c2ccccc2)cc1` (stereo not given) was 887 nM; that for `COc1ccc(S(=O)(=O)N2CCCC(C)C2)cc1N1CCN(C(=O)c2ccc([N+](=O)[O-])o2)CC1` (stereo not given) was 1250 nM.
The value for `COc1cc(Nc2nccc(NCC(O)c3ccc(C(F)(F)F)cc3)n2)cc(OC)c1OC` (stereo not given) was 920 nM; that for `O=C(Nc1cccc(C(F)(F)F)c1)c1ccc(S(=O)(=O)NC2CCN(CC3CCCCC3)C2)cc1` (stereo not given) was 789 nM; that for `CN(C(=O)Nc1ccc(C(F)(F)F)cc1)C1CCN(CCCCCNC(=O)/C=C/c2ccc(Cl)c(Cl)c2)CC1` was 330 nM.
Turning to `Cc1ccc(NC(=O)c2ccc(C(=O)NC3CCN(CC4CCCCC4)CC3)cc2)cc1`, the XC50 turned out to be 903 nM.
The value for `Cc1cc(N(C)C2CCN(CC3CCCCC3)C2)nc(Nc2ccc(Br)cc2)n1` (stereo not given) was 703 nM; that for `O=C(Oc1ccc(C2CNCCc3c2cc(OC(=O)c2ccc(O)cc2)c(OC(=O)c2ccc(O)cc2)c3Cl)cc1)c1ccc(O)cc1` (stereo not given) was 983 nM; that for `COc1ccc(NC(=O)N2CCN(CCCCCNC(=O)/C=C/c3ccc(C(F)(F)F)cc3)CC2)cc1Cl` was 859 nM.
As for `N#Cc1ccc(N[C@@H](CC2CCCCC2)C(=O)NCc2cc(Cl)cc(Cl)c2)c2ccccc12`, the XC50 was determined as 1100 nM.
The value for `COC(=O)c1cccc(CNCc2ccc(-c3cccc(-c4nc5ccccc5[nH]4)c3)cc2)c1` was 261 nM.
The value for `Cc1ccc(C(=O)Cn2nc(-c3ccc(C)c(S(=O)(=O)N4CCCCC4)c3)ccc2=O)cc1` was 333 nM.
The value for `Cc1cccc(-c2cc3cc(Nc4ccnc5cc(-c6nccs6)ccc45)ccc3[nH]2)c1` was 174 nM.
The compound `CC(=O)Nc1ccc(CNC2Cc3ccc(-c4ccc(Cl)c(Cl)c4)cc3C2)cc1` (stereo not given) came in with an XC50 of 998 nM.
The value for `Cc1cccc2nc(-c3ccc(-c4ccc(CNCc5ccccc5)cc4)cc3)[nH]c12` was 508 nM; that for `COc1ccc(Nc2ncc3c(-c4cccc(NC(=O)c5ccc(N)cc5)c4)c[nH]c3n2)cc1OC` was 975 nM; that for `NC(=O)COc1c(C2CCN(CCCCNC(=O)c3ccc(-c4ccc(Cl)cc4)c(O)c3)CC2)ccc2c1CCCC2` was 706 nM.
Compound `CCc1ccc(OCc2ccccc2C(=O)Nc2ccc3nc(C)cc(N)c3c2)cc1` registered an XC50 of 203 nM.
The value for `Cc1cc(Nc2nc(NCc3cccnc3)nc3ccccc23)n[nH]1` was 852 nM; that for `Cn1c(Nc2nnc(C3CC3)s2)nc2cc(Nc3ccnc(Nc4cccc(CS(C)(=O)=O)c4)n3)ccc21` was 681 nM.
The value for `CCOC(=O)c1nc(-c2cc(Cl)nc(Cl)c2)[nH]c1NC(=S)NCCCN1CCOCC1` was 925 nM; that for `O=C(Nc1ccc(Cl)cc1)c1ccc(CN2CCCN(Cc3cccc(F)c3)CC2)cc1` was 1030 nM; that for `COc1ccc(C=Cc2cc(=N)c3ccccc3[nH]2)cc1Br` was 713 nM.
The value for `CCn1cc(-c2nc(-c3cc(OC)cc(OC)c3)no2)c(=O)c2ccccc21` was 338 nM; that for `O=C(NCc1ccc(Cl)c(Cl)c1)c1ccc(-c2nc3ccc(Cl)cc3[nH]2)cc1` was 905 nM; that for `COc1ccc(-c2ccc(NC(=O)c3cccc(Cl)c3)cc2)cc1CNC(C)C` was 466 nM.
Compound `COc1ccc2nc(-c3cccc(C)n3)nc(Nc3ccncc3)c2c1` came in with an XC50 of 669 nM.
`Cc1nc(-c2ccc(C#N)cc2)sc1C(=O)NCCCCN1CCC(c2ccc3c(c2OCCO)CCCC3)CC1` returned an XC50 of 850 nM.
The value for `N#Cc1ccc2c(c1)CCN(CCC1CCC(NC(=O)/C=C/c3cccc4ccccc34)CC1)CC2` (stereo not given) was 729 nM; that for `CC(C)Cn1cc(C2CCN(CCN3CCC(CNC(=O)c4ccc(NC(=O)c5cc(Cl)cc(Cl)c5)cc4)CC3)CC2)c2ccccc21` was 693 nM.
The value for `Cn1nc(-c2cccc(CNCCc3cccs3)c2)c2cnc(NC3CCCC3)nc21` was 1890 nM; that for `CCCC1N=C(N)N=C(N)N1c1ccc(OC)cc1` (stereo not given) was 234 nM.
The value for `O=C(Nc1ccc(-c2ccccc2)cc1)Nc1cccc(Cn2nc(Cl)c(N3CCNCC3)cc2=O)c1` was 369 nM; that for `CCn1cc(C=C2Oc3c(ccc(O)c3CN3CCCCC3)C2=O)c2cc(OC)ccc21` was 521 nM.
Compound `COC(=O)c1ccc(CN2CCC(N(Cc3cccc(Oc4ccccc4)c3)S(=O)(=O)c3ccc(NC(C)=O)cc3)CC2)cc1` displayed an XC50 of 1050 nM.
The value for `Cn1nc(-c2ccc(NC(=O)Nc3cc(C(F)(F)F)ccc3F)cc2)c2cnc(NCCc3c[nH]cn3)nc21` was 813 nM; that for `O=C(Nc1cccc(-c2ccc(-c3nc4cc(C(F)(F)F)ccc4[nH]3)cc2)c1)c1ccncc1` was 337 nM; that for `N#Cc1cccc(NC(=O)C2=C(CCc3ccc4c(c3)OCO4)NC(=O)NC2c2cccc(C#N)c2)c1` (stereo not given) was 834 nM.
The value for `CC(=O)Nc1ccc(CN2CCC(N(C)c3ccc(NC(=O)c4cccc(C)c4)cc3)CC2)cc1` was 986 nM; that for `COC(=O)C1=CNC=C(C(=O)OC)C1c1ccc(Cl)c([N+](=O)[O-])c1` was 676 nM.
The value for `Cc1nc(C)c(-c2ccc(-c3ccc(F)cc3)cc2)c(O)c1Cl` was 655 nM; that for `CCOC(=O)c1ccc(N(CCCN(CCCN(c2ccc(C(=O)OCC)cc2)S(=O)(=O)c2ccc(C)cc2)CCc2ccc(O)cc2)S(=O)(=O)c2ccc(C)cc2)cc1` was 1050 nM.
`Nc1c(Cl)cc(C(O)CNCCCCCCOCCC=C2CCOCC2)cc1Cl` (stereo not given) yielded an XC50 of 634 nM.
The value for `CCNc1cc(C)nc(Nc2ccc(F)cc2)n1` was 798 nM.
The value for `COc1ccc2nc(Nc3nc4cnccc4[nH]3)sc2c1` was 1130 nM; that for `CC(=O)Nc1nc(C(=O)Nc2cccc(-c3ccc4c(cnn4CC4CC4)c3)c2)cs1` was 735 nM.
The value for `COc1cccc(C(=O)C2CC2CN2CC=C(c3c(C)[nH]c4ccccc34)CC2)c1` (stereo not given) was 710 nM.
As to `Cc1cccc(CNc2nc(C)cc(N[C@@H](CC(C)C)C(=O)NCCOc3ccccc3)n2)c1`, the XC50 came to 1080 nM.
The value for `O=C(NCc1cc2c(cc1Cl)OCO2)c1ccc(CNC2CCN(Cc3ccccc3)CC2)cc1` was 831 nM.
`NCC1CCCN1Cc1ccc(-c2cccc(-c3nc4cc(F)ccc4[nH]3)c2)cc1` (stereo not given) showed an XC50 of 751 nM.
The value for `N#Cc1ccc2c(c1)CCN(CCC1CCC(NC(=O)c3ccc(-c4ccccc4)s3)CC1)CC2` (stereo not given) was 684 nM; that for `Cc1nc(N2CCC(C)CC2)c2c3c(sc2n1)CCCC3` was 1060 nM.
The value for `COc1cc(O)c2c(=O)c(OC)c(-c3cccc(Cl)c3OCC(=O)O)oc2c1OC` was 586 nM.
The value for `O=C(/C=C/c1ccccc1)N1CCOC(CCN2CCC(c3ccccc3)CC2)(c2ccc(Cl)c(Cl)c2)C1` (stereo not given) was 516 nM; that for `CC(=O)c1ccc(N2C(=O)C3C(Cc4ccc(OC(C)(C)C)cc4)NC4(C(=O)N(Cc5ccc(C(C)(C)C)cc5)c5ccccc54)C3C2=O)cc1` (stereo not given) was 1280 nM; that for `CCNc1cc(C)nc(Nc2ccc(NC(=O)c3ccco3)cc2)n1` was 1090 nM.
`C=CCc1cc(Cc2cnc(N)nc2N)c2ccc(C)nc2c1O`: the XC50 amounted to 1040 nM.
The value for `N#Cc1ccc(NC(=O)Nc2ccc(OC(F)(F)F)cc2)cc1` was 819 nM.
Compound `Nc1nc(N)c2nc(C3CC=CCC3)c(N)nc2n1` (stereo not given) came in with an XC50 of 162 nM.
The value for `COc1ccccc1CCNc1nc(C)cc(N[C@@H](Cc2ccccc2)C(=O)NCc2cccs2)n1` was 634 nM.
Take `COc1ccc2c(NN=Cc3cccc(F)c3)ccnc2c1`: the XC50 worked out at 207 nM.
Compound `O=C(NC1CCC(CN2CCC(c3c[nH]c4ccccc34)CC2)CC1)c1ccc(-c2cc(C(F)(F)F)ccc2Cl)o1` (stereo not given) gave an XC50 of 714 nM.
`CN1CCC[C@@H](Oc2cc3c(cc2Br)CCN3C(=O)Nc2ccc(-c3ccncc3)c(Cl)c2)C1`: the XC50 was found to be 624 nM.
The value for `CC(O)CNc1nc2ccccc2n1CC(=O)Nc1cccc(C(=O)Nc2cccc(C(F)(F)F)c2)c1` (stereo not given) was 103 nM; that for `Cc1cccc(Cn2c(C(N)=O)nn(-c3ccc([N+](=O)[O-])cc3C#N)c2=S)c1` was 731 nM.
The value for `COC(=O)c1ccc(CC(C)NCC(O)c2cccc(Cl)c2Cl)cc1` (stereo not given) was 548 nM; that for `Cn1nc(-c2ccc(NC(=O)Nc3cc(C(F)(F)F)ccc3F)c(F)c2)c2cnc(NCCCN3CCOCC3)nc21` was 604 nM.
Compound `O=C1C(c2ccccc2)=C(Nc2cc(Cl)cc(Cl)c2)c2ccccc21` showed an XC50 of 372 nM.
The value for `Cn1cnc(CCNC(=O)c2ccc(-c3ccc(-c4nc5cc(F)ccc5[nH]4)cc3)cc2)c1` was 866 nM; that for `O=C(/C=C/c1cccc(C(F)(F)F)c1)NCCCCCN1CCN(C(=O)Nc2ccc(Cl)c(Cl)c2)CC1` was 935 nM; that for `CNC(=O)c1ccccc1Nc1cc(Nc2cc(OC)ccn2)ncc1Cl` was 930 nM.
The compound `COc1ccc2nccc([C@@H](O)CN3CCC(NCc4cc5c(F)ccc(F)c5[nH]4)CC3)c2n1` returned an XC50 of 699 nM.
`CC(C)Oc1cc(-c2ccc(S(C)(=O)=O)cc2)nc(N(Cc2cccc(F)c2F)Cc2cccc(F)c2F)n1` had an XC50 of 121 nM.
The value for `Clc1cc(Nc2ccnc3ccc(Br)cc23)ccc1Oc1ccc(Cl)c2ccccc12` was 634 nM; that for `Cc1nc(Nc2ccc(F)cc2)nc(N2CCc3cc(O)ccc3C2C)c1C` (stereo not given) was 754 nM.
